Measurements taken from paper PMC8010720 (bioRxiv, 2021).
“Also recorded” adds a separate entry of the source. Where two headings read alike, the source gives them in different places.

Experiments:
A549 cells = assay type: cell-based, human; settings: for induction of phospholipidosis: NBD-PE staining, A549 cells
SARS-CoV-2 [1] = assay: Cellular antiviral assays against SARS-CoV-2; assay type: cell-based
SARS-CoV-2 [2] = settings: for effect on lung viral titer / viral propagation in mice: in vivo
human sigma-1 receptor = human sigma-1 receptor (Homo sapiens, UniProt Q99720); assay type: binding
human sigma-2 receptor = human sigma-2 receptor (Homo sapiens, UniProt Q5BJF2); settings: radioligand displacement, fractional binding at 1 μM (Fig. 2E)
[3] = test system: SARS-CoV-2 infected A549-ACE2 cells; assay type: cell-based

Chain of human sigma-2 receptor (Q5BJF2 whole entry): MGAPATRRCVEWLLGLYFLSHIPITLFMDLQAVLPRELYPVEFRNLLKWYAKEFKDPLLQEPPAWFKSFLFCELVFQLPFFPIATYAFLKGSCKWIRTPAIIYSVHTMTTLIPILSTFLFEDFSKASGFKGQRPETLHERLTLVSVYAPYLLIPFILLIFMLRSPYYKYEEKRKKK
Chain of human sigma-1 receptor (Q99720 whole entry): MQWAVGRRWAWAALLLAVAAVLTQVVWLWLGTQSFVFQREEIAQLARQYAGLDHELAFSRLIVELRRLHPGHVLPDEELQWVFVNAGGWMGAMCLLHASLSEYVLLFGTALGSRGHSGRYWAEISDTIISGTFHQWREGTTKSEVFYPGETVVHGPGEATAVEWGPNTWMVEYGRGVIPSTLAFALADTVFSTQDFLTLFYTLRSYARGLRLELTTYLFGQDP

For `CN1CCC[C@@H]1CCO[C@](C)(c1ccccc1)c1ccc(Cl)cc1` [Clemastine], the “phospholipidosis (DIPL)” value (A549 cells) was > 50 % of amiodarone.

In the case of `Cc1c2ccncc2c(C)c2c1[nH]c1ccccc12` [Ellipticine], the phospholipidosis inducer class (A549 cells; DIPL relative to amiodarone) is reported as “medium (key: > 50% of the strong phospholipidosis inducer amiodarone; medium: 50% > DIPL > 25% of amiodarone)” and the “induction of phospholipidosis” value (A549 cells) is reported as “confirmed phospholipidosis-inducing activity”.

For `CC/C(=C(\c1ccccc1)c1ccc(OCCN(C)C)cc1)c1ccccc1` [Tamoxifen], the “antiviral activity against SARS-CoV-2 in cells” value (shortened to “antiviral activity”) (SARS-CoV-2 [1]) was “mid-to high-nM activities against viral replication” and the “effect on lung viral titer / viral propagation in mice” value (SARS-CoV-2 [2]) was “no substantial effect on viral propagation”.

`Cc1ccccc1NC(=N)Nc1ccccc1C` [DTG, ditolylguanidine] was tested, and the “induction of phospholipidosis” value (A549 cells) was “did not induce phospholipidosis” and the “antiviral activity” value (SARS-CoV-2 [1]) was “not antiviral; also recorded: no measurable antiviral effects”.

In the case of `CCSc1ccc2c(c1)N(CCCN1CCN(C)CC1)c1ccccc1S2` [Thiethylperazine], the phospholipidosis inducer class (A549 cells; DIPL relative to amiodarone) is reported as “medium (key: > 50% of the strong phospholipidosis inducer amiodarone; medium: 50% > DIPL > 25% of amiodarone)”.

In the case of `Cc1cc2c(s1)Nc1ccccc1N=C2N1CCN(C)CC1` [Olanzapine], the phospholipidosis inducer class (A549 cells; DIPL relative to amiodarone) is reported as “medium (key: > 50% of the strong phospholipidosis inducer amiodarone; medium: 50% > DIPL > 25% of amiodarone)” and the “induction of phospholipidosis” value (A549 cells) is reported as “did induce phospholipidosis”.

With `COc1cccc2c1CCCC2CCCN1CCN(C2CCCCC2)CC1` (stereo not shown) [PB28] the “sigma-1 binding” value (human sigma-1 receptor) was “strong ligand of both sigma-1 and sigma-2”, the “sigma-2 binding” value (human sigma-2 receptor) was “strong ligand of both sigma-1 and sigma-2” and the “induction of phospholipidosis” value (A549 cells) was “both induce phospholipidosis”. For the same compound, the “NBD-PE aggregates vs DMSO” value [3] was “substantial increases in NBD-PE aggregates” and the “effect on lung viral titer / viral propagation in mice” value (SARS-CoV-2 [2]) was “no substantial effect on viral propagation”.

In the case of `CC(C)(C)c1ccc(C(=O)CCCN2CCC(OC(c3ccccc3)c3ccccc3)CC2)cc1` [Ebastine], the “induction of phospholipidosis” value (A549 cells) is reported as “confirmed phospholipidosis-inducing activity”.

With `CCCCc1oc2ccccc2c1C(=O)c1cc(I)c(OCCN(CC)CC)c(I)c1` [Amiodarone] the “NBD-PE aggregates vs DMSO” value [3] was “substantial increases in NBD-PE aggregates”, the “antiviral activity” value (SARS-CoV-2 [1]) was “mid-to high-nM activities against viral replication” and the “effect on lung viral titer / viral propagation in mice” value (SARS-CoV-2 [2]) was “no substantial effect on viral propagation”.

In the case of `O=C1NCN(c2ccccc2)C12CCN(CCCC(c1ccc(F)cc1)c1ccc(F)cc1)CC2` [Fluspirilene], the phospholipidosis inducer class (A549 cells; DIPL relative to amiodarone) is reported as “medium (key: > 50% of the strong phospholipidosis inducer amiodarone; medium: 50% > DIPL > 25% of amiodarone)”.

For `CC[C@H]1OC(=O)[C@H](C)[C@@H](O[C@H]2C[C@@](C)(OC)[C@@H](O)[C@H](C)O2)[C@H](C)[C@@H](O[C@@H]2O[C@H](C)C[C@H](N(C)C)[C@H]2O)[C@](C)(O)C[C@@H](C)CN(C)[C@H](C)[C@@H](O)[C@]1(C)O` [Azithromycin], the “induction of phospholipidosis” value (A549 cells) was “confirmed phospholipidosis-inducing activity”.

With `COc1cc2nc(N3CCCN(C)CC3)nc(NC3CCN(Cc4ccccc4)CC3)c2cc1OC` [Bix 01294] the “induction of phospholipidosis” value (A549 cells) was “confirmed phospholipidosis-inducing activity”, the “NBD-PE aggregates vs DMSO” value [3] was “substantial increases in NBD-PE aggregates” and the “SARS-CoV-2 spike protein signal” value [3] was “nearly complete loss of spike protein signal”.

For `CNCC[C@H](Oc1cccc2ccccc12)c1cccs1` [Duloxetine], the phospholipidosis inducer class (A549 cells) was “strong (key: > 50% of the strong phospholipidosis inducer amiodarone; medium: 50% > DIPL > 25% of amiodarone)”.

In the case of `CCN(CCO)CCCC(C)Nc1ccnc2cc(Cl)ccc12` (stereo not shown) [Hydroxychloroquine], the “NBD-PE aggregates vs DMSO” value [3] is reported as “substantial increases in NBD-PE aggregates”.

`CN1CCC(CN2c3ccccc3Sc3ccccc32)C1` (stereo not shown) [Methdilazine] was tested, and the phospholipidosis inducer class (A549 cells; DIPL relative to amiodarone) was “medium (key: > 50% of the strong phospholipidosis inducer amiodarone; medium: 50% > DIPL > 25% of amiodarone)”.

`CN(C)CCOc1ccc(/C(=C(/CCCl)c2ccccc2)c2ccccc2)cc1` [Toremifene] was tested, and the phospholipidosis inducer class (A549 cells; DIPL relative to amiodarone) was “strong (key: > 50% of the strong phospholipidosis inducer amiodarone; medium: 50% > DIPL > 25% of amiodarone)”.

With `CC1CCN(CCCC(=O)c2ccc(F)cc2)CC1` [Melperone] the “induction of phospholipidosis” value (A549 cells) was “did not induce phospholipidosis; also recorded: non-phospholipidosis inducing” and the “antiviral activity” value (SARS-CoV-2 [1]) was “not antiviral; also recorded: no measurable antiviral effects”.

In the case of `COc1cc2c(cc1OC)CN(CCc1ccc(NC(=O)c3cccc4c(=O)c5cccc(OC)c5[nH]c34)cc1)CC2` [Elacridar], the “induction of phospholipidosis” value (A549 cells) is reported as “non-phospholipidosis inducing”, the “effect on lung viral titer / viral propagation in mice” value (SARS-CoV-2 [2]) is reported as “modest antiviral effect” and the “dose above which mice exhibited toxicities” value (SARS-CoV-2 [2]; mice, i.p. once per day) is reported as “higher than 3 mg/kg”.

For `CN[C@H]1CC[C@@H](c2ccc(Cl)c(Cl)c2)c2ccccc21` [Sertraline], the “phospholipidosis (DIPL)” value (A549 cells) was > 50 % of amiodarone, the “NBD-PE aggregates vs DMSO” value [3] was “substantial increases in NBD-PE aggregates” and the “antiviral activity” value (SARS-CoV-2 [1]) was “mid-to high-nM activities against viral replication”. The “effect on lung viral titer / viral propagation in mice” value (SARS-CoV-2 [2]) was “no substantial effect on viral propagation”.
